For the experiment, the target named is T1, hP2X7R (Homo sapiens, UniProt Q99572).
T1 construct: expressed in transfected cells; host or cells: Xenopus laevis oocytes (cRNA injection)
T1 sequence (Q99572 1-595): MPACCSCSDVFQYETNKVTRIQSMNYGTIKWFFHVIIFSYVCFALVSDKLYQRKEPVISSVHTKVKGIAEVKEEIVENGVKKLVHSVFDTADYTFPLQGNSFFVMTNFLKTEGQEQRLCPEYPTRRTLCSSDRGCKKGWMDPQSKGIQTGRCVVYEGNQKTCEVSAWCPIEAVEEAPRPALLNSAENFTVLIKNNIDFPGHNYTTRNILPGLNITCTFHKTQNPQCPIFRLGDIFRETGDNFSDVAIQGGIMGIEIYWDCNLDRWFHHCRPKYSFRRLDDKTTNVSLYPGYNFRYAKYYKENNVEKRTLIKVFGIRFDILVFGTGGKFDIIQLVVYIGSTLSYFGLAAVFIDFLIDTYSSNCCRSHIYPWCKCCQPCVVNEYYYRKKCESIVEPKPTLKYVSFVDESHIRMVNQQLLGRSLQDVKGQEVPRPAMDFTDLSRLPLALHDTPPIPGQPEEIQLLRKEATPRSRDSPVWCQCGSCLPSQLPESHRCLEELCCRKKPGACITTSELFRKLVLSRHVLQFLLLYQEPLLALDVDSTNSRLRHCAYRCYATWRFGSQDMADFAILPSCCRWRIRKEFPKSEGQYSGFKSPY
The experiment can be described thus: TEVC of ATP4--induced currents, hP2X7R in X. laevis oocytes (modified steady-state protocol). The following applies: for IC50: estimated from few tested concentrations. Type of experiment: cell-based. Here is the method:
Ion currents mediated by P2X receptors were evoked by the indicated concentration of ATP or α,β-meATP and were recorded 1 or 2 days after cRNA injection at ambient temperature at a holding potential of −60 mV by two-electrode voltage clamp (TEVC) as previously described ([Hausmann et al., 2006]). Calcium-free ORi^− solution (90 mM NaCl, 1 mM KCl, 2 mM MgCl2, 10 mM HEPES, pH 7.4) was used to avoid bias due to calcium-activated chloride channels (CaCC) endogenously expressed in X. laevis oocytes ([Miledi, 1982]; [Methfessel et al., 1986]). For recordings of wt-hP2X7R, the composition of the ORi^− solution was modified according to protocols described previously and contained 100 mM NaCl, 2.5 mM KCl, 1 mM MgCl2, 5 mM HEPES, pH 7.4 ([Klapperstück et al., 2000]). The oocytes were continuously superfused with ORi^− by gravity flow (5–10 ml/min). The agonists ATP or α,β-meATP and the investigated NSAIDs were diluted in ORi^− on the day of the recording. The following agonist concentrations were used for the different P2X subtypes: 1 μM ATP (hP2X1R mutant, hP2X3R, rP2X3R, S^15V-hP2X3R, and S^15V-rP2X3R); 10 μM ATP (hP2X2R and hP2X4R); 300 μM free ATP^4- (hP2X7R); and 1 μM α,β-meATP (hP2X2/3R). A peak current protocol (Supplementary Figure S1) was used to analyze fast- and intermediate desensitizing P2XR subtypes (P2X1R, P2X3R, and S^15V-P2X3R), and a steady-state protocol (Supplementary Figure S2) was used for slowly or partially desensitizing P2X subtypes (P2X2R, P2X2/3R, and P2X4R). For recordings of P2X7R, a modified steady-state protocol was used ([Hausmann et al., 2006]). The application of different bath solutions was controlled by computer-operated magnetic valves controlled by the CellWorks E 5.5.1 software (npi electronic, Tamm, Germany).
In the case of hP2X7R, the control current in the absence of the antagonist had to be extrapolated (Supplementary Figure S4 and Supplementary Figure S5) presuming a linear increase in permeability during continuous ATP application ([North, 2002]) since the permeability of the receptor is affected by the antagonist.
For recordings of P2X7R, most scientists use divalent-free solutions such as ORi supplemented with 100 µM flufenamic acid (FFA) as an unselective ion channel blocker to inhibit non-specific chloride conductance in the absence of divalent ions ([Weber et al., 1995]; [Hülsmann et al., 2003]). However, since FFA is one of the investigated NSAIDs, this supplement was not reasonable. Therefore, the composition of the ORi-solution was modified as follows: 100 mM NaCl, 2.5 mM KCl, 1 mM MgCl2, 5 mM HEPES, pH 7.4, and according to former protocols ([Klapperstück et al., 2000]), a free ATP^4−concentration of 300 µM was adjusted.

Some results are limits rather than exact numbers.

For orientation: IC50 means the concentration that inhibits the measured activity by half.

Take `O=C(O)Cc1ccccc1Nc1c(Cl)cccc1Cl` [Diclofenac, diclofenac]: for the setting “300 µM diclofenac, 300 µM free ATP4-”, the “reduction of ATP4--induced current amplitude by 300 µM diclofenac” value was “approximately 33%”. Besides, for the setting “300 µM free ATP4-”, the IC50 was greater than 300 µM.
Turning to `O=C(O)c1ccccc1Nc1cccc(C(F)(F)F)c1` [Flufenamic acid, flufenamic acid], the IC50 (300 µM free ATP4-) was roughly 900 µM. For the same compound, the “reversibility of the effect on hP2X7R-mediated current responses” value (slope of current before and after FFA application) is reported as “potentially irreversible”.

Values taken from article PMC10060569 (Frontiers in Pharmacology, 2023).
